Reference: patent EP4512427A1, “ANTIBODY-DRUG CONJUGATES BASED ON MOLECULAR GLUE DEGRADERS AND USES THEREOF” (Mablink Bioscience, priority 2023, dated 2025)

Legend:
MDA-MB-231 = experiment: In vitro cytotoxicity assay (MTT); assay type: cell-based, human; settings: Homo sapiens, 6 days incubation
Procedure: (§1) In vitro cytotoxicity of compounds of the disclosure was assessed on several cancerous human cell lines. Cells were plated in 96-well plates at an appropriate density depending on the cell line (between 1000 and 10 000 cells/well in 100µL of appropriate culture media) and incubated at 37°C for 24 hours. Serial dilutions of the tested compound previously dissolved in culture media (50µL) were added, and incubation was carried at 37°C out for 6 days. MTT (5mg/mL in PBS, 20µL, Sigma-Aldrich) was added into the wells, and incubation was continued for 1 to 4 hours at 37°C. Culture media was then carefully removed, and well content was homogeneously dissolved with acidified isopropanol. Absorbance values were measured on a microplate reader using a wavelength of 570 nm (with a reference wavelength of 690 nm). The IC50 concentration values compared to untreated control cells were determined using inhibition dose response curve fitting (GraphPad Prism 9). Exatecan mesylate (cat#HY-13631A) and CR8 (CAS# 294646-77-8; cat#HY-18340) were purchased from MedChemExpress (China).

NCI-N87 = experiment: In vitro cytotoxicity assay (MTT); assay type: cell-based, human; settings: Homo sapiens, 6 days incubation
Procedure: as §1

JIMT-1 = experiment: In vitro cytotoxicity assay (MTT); assay type: cell-based, human; settings: Homo sapiens, 144 h, 6 days incubation
Procedure: as §1

BT-474 = experiment: In vitro cytotoxicity assay (MTT); assay type: cell-based, human; settings: Homo sapiens, BT-474, 144 h
Procedure: as §1

SKBR-3 = experiment: In vitro cytotoxicity assay (MTT); assay type: cell-based, human; settings: Homo sapiens, SK-BR-3, 144 h, 6 days incubation
Procedure: as §1

MDA-MB-453 = experiment: In vitro cytotoxicity assay (MTT); assay type: cell-based, human; settings: Homo sapiens, 6 days incubation
Procedure: as §1

BXPC3 = experiment: In vitro cytotoxicity assay (MTT); assay type: cell-based; settings: Homo sapiens, BXPC-3, 144 h, 6 days incubation
Procedure: as §1

Caco-2 = experiment: In vitro cytotoxicity assay (MTT); assay type: cell-based; settings: Homo sapiens, 144 h, 6 days incubation
Procedure: as §1

A549 = experiment: In vitro cytotoxicity assay (MTT); assay type: cell-based; settings: Homo sapiens, 144 h, 6 days incubation
Procedure: as §1

OE-19 = experiment: In vitro cytotoxicity assay (MTT); assay type: cell-based; settings: Homo sapiens, OE19, 144 h, 6 days incubation
Procedure: as §1

HT-29 = experiment: In vitro cytotoxicity assay (MTT); assay type: cell-based; settings: Homo sapiens, 144 h, 6 days incubation
Procedure: as §1

HCT-116 = experiment: In vitro cytotoxicity assay (MTT); assay type: cell-based; settings: Homo sapiens, 144 h, 6 days incubation
Procedure: as §1

MCF-7 = experiment: In vitro cytotoxicity assay (MTT); assay type: cell-based; settings: Homo sapiens, MCF7, 144 h, 6 days incubation
Procedure: as §1

in vitro = settings: PAMPA, pH 7.4
Procedure: Stock solutions of compounds of the invention were prepared in dimethyl sulfoxide (DMSO) to a final concentration of 10 mM. Each stock solution was diluted to 50 µM in pH 7.4 Prisma HT buffer (pION) in the presence of 10% MeOH (v/v). 200 µL were added to each well of the donor plate in quintuplicate. […] The acceptor filter plate was carefully placed on top of the donor plate to form a "sandwich." The sandwich was incubated at 25°C for 5 h, at 300 rpm. UV-vis spectra of the solutions in the blank, reference, acceptor, and donor plates were measured using a Tecan Infinite 200 PRO M Nano Plus microplate reader.

MDR1 = target: T1, MDR1 (Homo sapiens, UniProt P08183); experiment: MDR1 efflux substrate assay in MDCK-MDR1; assay type: in vitro ADME; settings: dog, MDCK-MDR1, 5µM, 60 min, pH 7.4
T1 construct: host or cells: MDCK-MDR1 (Preadyport)
Procedure: (§2) MDR1 and BCRP efflux substrate assays were conducted in MDCK-MDR1 and MDCK-BCRP in vitro models (Preadyport™, Solvo Biotech) at Symeres (Nederland). Compound of the invention (donor well concentration of 5µM) were incubated in cell monolayer 24-transwell Preadyport system, using Preadyport recommended pH 7.4 assay buffer (donor and receiver wells). After 60 min of incubation (no shaking), samples are collected and suspended into triple volume of 66% cold acetonitrile. Samples are stored at -20°C until thawed, centrifuged and analyzed by LC-MS. Quinidine was used a positive control for the MDR1 assay, and prazosin was used as a positive control for the BCRP assay. Exatecan was used as a control, known not to be an MDR1 substrate. Residual DMSO content from compounds stock solutions was below 1% (v/v). The assay was performed in duplicate. The quantification of test compounds in donor or receptor compartment is conducted using relative LC/MS peak areas (samples of initial incubation solutions are used as a single point calibrator), without any spiked standard samples. The data is used for estimating apparent permeability (Papp) and calculation of efflux ratio.

BCRP = target: T2, BCRP (Homo sapiens, UniProt Q9UNQ0); experiment: BCRP efflux substrate assay in MDCK-BCRP; assay type: in vitro ADME; settings: dog, pH 7.4, MDCK-BCRP
T2 construct: host or cells: MDCK-BCRP (Preadyport)
T2 sequence (Q9UNQ0 1-655): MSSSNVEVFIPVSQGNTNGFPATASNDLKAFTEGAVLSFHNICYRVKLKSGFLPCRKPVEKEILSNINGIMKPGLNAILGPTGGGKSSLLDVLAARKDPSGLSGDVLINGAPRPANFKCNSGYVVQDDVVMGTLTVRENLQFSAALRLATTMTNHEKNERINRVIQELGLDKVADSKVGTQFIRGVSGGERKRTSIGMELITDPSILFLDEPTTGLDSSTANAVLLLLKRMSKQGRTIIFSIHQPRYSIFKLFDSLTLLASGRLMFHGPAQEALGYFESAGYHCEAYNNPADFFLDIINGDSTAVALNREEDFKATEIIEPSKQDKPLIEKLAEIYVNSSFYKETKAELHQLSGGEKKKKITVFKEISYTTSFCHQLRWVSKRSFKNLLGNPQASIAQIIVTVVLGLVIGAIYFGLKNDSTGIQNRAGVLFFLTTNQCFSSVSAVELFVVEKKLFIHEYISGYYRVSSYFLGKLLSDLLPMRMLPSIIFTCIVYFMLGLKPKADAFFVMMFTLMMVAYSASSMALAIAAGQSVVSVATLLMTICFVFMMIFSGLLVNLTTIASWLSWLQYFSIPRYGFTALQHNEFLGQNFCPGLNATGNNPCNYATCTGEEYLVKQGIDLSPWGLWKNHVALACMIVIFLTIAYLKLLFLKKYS
Procedure: as §2

KB-1 = experiment: In vitro cytotoxicity assay (MTT); assay type: cell-based; settings: Homo sapiens, KB16, 144 h, 6 days incubation
Procedure: as §1

T1 sequence (P08183 whole entry): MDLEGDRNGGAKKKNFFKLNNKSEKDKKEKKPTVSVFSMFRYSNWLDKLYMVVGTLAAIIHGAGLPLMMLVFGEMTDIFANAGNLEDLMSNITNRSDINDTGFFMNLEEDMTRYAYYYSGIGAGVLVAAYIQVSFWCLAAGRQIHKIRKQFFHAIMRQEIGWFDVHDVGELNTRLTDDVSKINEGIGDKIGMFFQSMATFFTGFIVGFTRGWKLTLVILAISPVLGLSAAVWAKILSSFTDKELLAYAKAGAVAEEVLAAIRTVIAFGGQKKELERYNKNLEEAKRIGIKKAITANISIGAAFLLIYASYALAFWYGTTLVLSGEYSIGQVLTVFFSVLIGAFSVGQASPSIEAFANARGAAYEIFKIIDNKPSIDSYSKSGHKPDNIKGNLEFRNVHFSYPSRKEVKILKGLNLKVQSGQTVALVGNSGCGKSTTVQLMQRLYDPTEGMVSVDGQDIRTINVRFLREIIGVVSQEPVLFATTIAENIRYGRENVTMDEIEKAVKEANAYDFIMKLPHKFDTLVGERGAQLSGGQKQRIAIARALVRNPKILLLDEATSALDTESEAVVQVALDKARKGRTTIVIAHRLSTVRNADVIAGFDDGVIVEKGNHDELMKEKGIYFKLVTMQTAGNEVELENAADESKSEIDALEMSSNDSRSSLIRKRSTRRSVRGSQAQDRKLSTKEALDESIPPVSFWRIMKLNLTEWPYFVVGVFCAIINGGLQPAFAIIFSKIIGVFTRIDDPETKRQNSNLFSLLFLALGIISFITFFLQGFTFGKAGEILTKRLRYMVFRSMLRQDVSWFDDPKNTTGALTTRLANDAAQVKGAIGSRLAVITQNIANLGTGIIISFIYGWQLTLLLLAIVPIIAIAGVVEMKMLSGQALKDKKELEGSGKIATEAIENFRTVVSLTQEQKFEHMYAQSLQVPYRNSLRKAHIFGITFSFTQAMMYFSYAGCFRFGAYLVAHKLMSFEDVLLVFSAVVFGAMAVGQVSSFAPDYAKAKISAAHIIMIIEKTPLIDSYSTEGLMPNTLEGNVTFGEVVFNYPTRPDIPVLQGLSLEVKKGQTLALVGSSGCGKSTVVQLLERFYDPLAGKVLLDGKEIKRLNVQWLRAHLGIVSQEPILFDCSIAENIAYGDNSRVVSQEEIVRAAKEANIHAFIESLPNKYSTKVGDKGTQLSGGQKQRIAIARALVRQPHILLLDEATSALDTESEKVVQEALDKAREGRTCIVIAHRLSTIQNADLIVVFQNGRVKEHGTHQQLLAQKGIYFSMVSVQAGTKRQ

| Compound | IC50 (MDA-MB-231; MDA-MB-231, 144 h) [nM] | IC50 (NCI-N87; NCI-N87, 144 h) [nM] | IC50 (JIMT-1) [nM] | IC50 (BT-474; BT-474, 6 days incubation, MTT) [nM] | IC50 (SKBR-3) [nM] | IC50 (MDA-MB-453; MDA-MB-453, 144 h) [nM] | IC50 (BXPC3) [nM] | IC50 (Caco-2) [nM] | IC50 (A549) [nM] | IC50 (OE-19) [nM] | IC50 (HT-29) [nM] | IC50 (HCT-116) [nM] | IC50 (MCF-7) [nM] | other results |
| --- | --- | --- | --- | --- | --- | --- | --- | --- | --- | --- | --- | --- | --- | --- |
| Brc1cnn2c(NCc3ccc(-c4ccccn4)cc3)nc(NC3CCNCC3)nc12 [Compound 2388, 8-bromo-N2-(piperidin-4-yl)-N4-(4-(pyridin-2-yl)benzyl)pyrazolo[1,5-a][1,3,5]triazine-2,4-diamine] | 0.76 | 1.4 | 0.64 | 1.64 | 1.68 | 1.27 | 1.97 | 4.46 | 0.65 | 3.77 | 0.23 | 1.66 | 5.4 | – |
| CC(C)c1cnn2c(NCc3ccc(-c4ccccn4)cc3)nc(N[C@H]3CC[C@H](N)CC3)nc12 [Compound 2420, N2-((1r,4r)-4-aminocyclohexyl)-8-isopropyl-N4-(4-(pyridin-2-yl)benzyl)pyrazolo[1,5-a][1,3,5]triazine-2,4-diamine] | 0.7 | 4.93 | 0.61 | 3.41 | 3.25 | 2.73 | – | 56.1 | 1.99 | 6.91 | 1.74 | 4.4 | 7.78 | – |
| CC(C)c1cnn2c(NCc3ccc(-c4ccccn4)cc3)nc(NC3CCNCC3)nc12 [Compound 2428] | 2.31 | 4.5 | 0.92 | 3.73 | 1.94 | 3.11 | – | 24.2 | 2.22 | 7.84 | 0.83 | 5.31 | 9.12 | – |
| N[C@H]1CC[C@@H](Nc2nc(NCc3ccc(-c4ccccn4)cc3)n3ncc(Br)c3n2)CC1 [Compound 2568] | – | – | 0.62 | – | 4.36 | – | 4.86 | – | – | – | 0.46 | – | 11.6 | IC50 (MDA-MB-231; 144 h): 0.98 nM; IC50 (NCI-N87; 144 h): 2.22 nM; IC50 (BT-474): 1.75 nM; IC50 (MDA-MB-453; 144 h): 1.67 nM; Papp at 5 h, 50 µM (in vitro): 88 ×10⁻⁶ cm/s; Papp A→B at 60 min, 5 µM (MDR1; read-out: Papp A (donor) to B (acceptor)): < 0.54 ×10⁻⁶ cm/s; Papp B→A at 60 min, 5 µM (MDR1; read-out: Papp B (acceptor) to A (donor)): 40.5 ×10⁻⁶ cm/s; efflux ratio at 60 min, 5 µM (BCRP; read-out: Efflux ratio B/A): 23.6; Papp A→B at 60 min, 5 µM (BCRP; 5µM, 60 min, read-out: Papp A (donor) to B (acceptor)): 2.52 ×10⁻⁶ cm/s; Papp B→A at 60 min, 5 µM (BCRP; 5µM, 60 min, read-out: Papp B (acceptor) to A (donor)): 59.5 ×10⁻⁶ cm/s; IC50 (KB-1): 4.95 nM |
